Assay results from ChEMBL document CHEMBL3779790, “Novel Imbricatolic acid derivatives as protein tyrosine phosphatase-1B inhibitors: Design, synthesis, biological evaluation and molecular docking” (Bioorg Med Chem Lett, 2016).

What was measured:
[1] = biological target: T1, Tyrosine-protein phosphatase non-receptor type 1 (Homo sapiens) (UniProt P18031); assay: Inhibition of human recombinant PTP-1B using IR5 insulin receptor residues as substrate at 1 uM after 30 mins by malachite green assay
T1 sequence (whole entry): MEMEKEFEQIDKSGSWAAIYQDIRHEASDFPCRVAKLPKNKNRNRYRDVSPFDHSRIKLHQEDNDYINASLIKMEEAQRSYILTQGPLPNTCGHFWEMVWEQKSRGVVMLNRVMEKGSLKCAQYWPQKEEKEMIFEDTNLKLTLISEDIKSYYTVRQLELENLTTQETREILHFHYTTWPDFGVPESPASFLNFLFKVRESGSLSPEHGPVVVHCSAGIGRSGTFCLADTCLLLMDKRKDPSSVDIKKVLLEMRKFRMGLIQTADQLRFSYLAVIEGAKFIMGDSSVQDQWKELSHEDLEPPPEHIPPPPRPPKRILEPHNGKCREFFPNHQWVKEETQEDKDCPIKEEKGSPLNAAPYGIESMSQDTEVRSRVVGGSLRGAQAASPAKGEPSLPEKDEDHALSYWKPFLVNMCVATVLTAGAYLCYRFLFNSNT

[2] = biological target: T1, Tyrosine-protein phosphatase non-receptor type 1 (Homo sapiens); assay: Inhibition of human recombinant PTP-1B using IR5 insulin receptor residues as substrate at 30 uM after 30 mins by malachite green assay
[3] = biological target: T2, Tyrosine-protein phosphatase non-receptor type 1 (Homo sapiens, UniProt P18031); assay: Inhibition of human recombinant PTP-1B using IR5 insulin receptor residues as substrate after 30 mins by malachite green assay
T2 sequence (P18031 whole entry): T1 sequence (whole entry)

[4] = biological target: T1, Tyrosine-protein phosphatase non-receptor type 1 (Homo sapiens); assay: Inhibition of human recombinant PTP-1B using IR5 insulin receptor residues as substrate at 100 uM after 30 mins by malachite green assay
[5] = biological target: T1, Tyrosine-protein phosphatase non-receptor type 1 (Homo sapiens); assay: Inhibition of human recombinant PTP-1B using IR5 insulin receptor residues as substrate at 5 uM after 30 mins by malachite green assay
[6] = biological target: T1, Tyrosine-protein phosphatase non-receptor type 1 (Homo sapiens); assay: Inhibition of human recombinant PTP-1B using IR5 insulin receptor residues as substrate at 10 uM after 30 mins by malachite green assay

| Structure (SMILES) | inhibition [1] | inhibition [2] | IC50 [3] | inhibition [4] | inhibition [5] | inhibition [6] |
| --- | --- | --- | --- | --- | --- | --- |
| C=C1CC[C@@H]2[C@](C)(CCC[C@]2(C)NC(N)=O)[C@H]1CC[C@H](C)C/C=N/OC(C)=O | 11.2% | 79.1% | 7 µM | 82.2% | 31.7% | 65.3% |
| C=C1CC[C@@H]2[C@](C)(CCC[C@]2(C)N=C=O)[C@H]1CC[C@H](C)C/C=N/OC(C)=O |  |  |  |  |  | 44.8% |
| C=C1CC[C@@H]2[C@](C)(CCC[C@]2(C)NC(N)=O)[C@H]1CC[C@H](C)CNC(N)=O | 9.3% | 67.2% | 6.8 µM | 79.2% | 37.3% | 65.8% |
| C=C1CC[C@H]2[C@@](C)(COC(C)=O)CCC[C@]2(C)[C@H]1CC[C@H](C)CCOC(C)=O |  |  |  |  |  | 34.2% |
| C=C1CC[C@@H]2[C@](C)(CCC[C@]2(C)C(=O)OCC)[C@H]1CC[C@H](C)CCO |  |  |  |  |  | 23.1% |
| C=C1CC[C@@H]2[C@](C)(CCC[C@]2(C)NC(N)=O)[C@H]1CC[C@H](C)C/C=N/O | 7.1% | 63.2% | 7.8 µM | 69.2% | 38.2% | 59.9% |
| C=C1CC[C@@H]2[C@](C)(CCC[C@]2(C)C(=O)O)[C@H]1CC[C@H](C)CC=O |  |  |  |  |  | 19.9% |
| C=C1CC[C@@H]2[C@](C)(CCC[C@]2(C)C(=O)O)[C@H]1CC[C@H](C)C/C=N/O |  |  |  |  |  | 40.1% |
| C=C1CC[C@@H]2[C@](C)(CCC[C@]2(C)NC(N)=O)[C@H]1CC[C@H](C)CCO | 8.2% | 79.2% | 6.3 µM | 87.2% | 25.9% | 61.5% |
| C=C1CC[C@@H]2[C@](C)(CCC[C@]2(C)C(=O)O)[C@H]1CC[C@H](C)CCO [IMBRICATOLIC ACID] | 5.9% | 67.2% | 8.8 µM | 71.1% | 19.2% | 59.2% |
| C=C1CC[C@@H]2[C@](C)(CCC[C@]2(C)N=C=O)[C@H]1CC[C@H](C)CCO |  |  |  |  |  | 41.3% |
| Cc1ccc(C(=O)Nc2ccc(S(=O)(=O)O)c3cc(S(=O)(=O)O)cc(S(=O)(=O)O)c23)cc1NC(=O)c1cccc(NC(=O)Nc2cccc(C(=O)Nc3cc(C(=O)Nc4ccc(S(=O)(=O)O)c5cc(S(=O)(=O)O)cc(S(=O)(=O)O)c45)ccc3C)c2)c1 |  |  |  |  |  | 64.3% |
| C=C1CC[C@@H]2[C@](C)(CCC[C@]2(C)N=C=O)[C@H]1CC[C@H](C)CN=C=O |  |  |  |  |  | 45.7% |
| C=C1CC[C@@H]2[C@](C)(CCC[C@]2(C)C(=O)O)[C@H]1CC[C@H](C)C/C=N/OC(C)=O |  |  |  |  |  | 43.5% |
| C=C1CC[C@H]2[C@@](C)(CO)CCC[C@]2(C)[C@H]1CC[C@H](C)CCO |  |  |  |  |  | 29.5% |
| C=C1CC[C@@H]2[C@](C)(CCC[C@]2(C)C(=O)O)[C@H]1CC[C@H](C)CC(=O)O |  |  |  |  |  | 35.6% |
